Measurements: patent publication US10544147B2, “Purine inhibitors of human phosphatidylinositol 3-kinase delta” (MERCK SHARP & DOHME CORP., priority 2016, dated 2020)

Experiments:
[1] = target: PI3Kdelta (Homo sapiens (Human), UniProt O00329); assay: HTRF PI3K biochemical assay, delta isoform; settings: 0.3 nM enzyme, 100 uM ATP, 50 uM PIP2; form screened (neutral or TFA salt)
Protocol: (§1) HTRF PI3K Biochemical Assay to Measure Intrinsic Potency of Compound Inhibitors
(§2) This loss of signal is nonlinear with respect to both increasing product and time. This non-linear detection will impact accuracy of IC50 calculations; therefore, there is a need for a correction factor to obtain more accurate IC50 values. This correction is derived from a PIP3 standard curve run in a separate assay plate. All data were calculated using the ratio of acceptor (APC) to donor (Europium) fluorescence in each well of the assay plate. […] An IC50 was then calculated fitting the % inhibition data to the equation: % inhibition=min+(Max−min)/1+([inhibitor]/IC50)^n) where min is the % inhibition with inhibitor, max is the signal in DMSO control, and n is the Hill slope.
(§3) The biological data was collected using the methodology described above.

[2] = target: PI3Kalpha (Homo sapiens (Human), UniProt P42336); assay: HTRF PI3K biochemical assay, alpha isoform (selectivity versus delta); settings: ratio PI3K-alpha IC50 value/PI3K-delta IC50 value
PI3Kalpha, sequence (P42336 whole entry, canonical isoform): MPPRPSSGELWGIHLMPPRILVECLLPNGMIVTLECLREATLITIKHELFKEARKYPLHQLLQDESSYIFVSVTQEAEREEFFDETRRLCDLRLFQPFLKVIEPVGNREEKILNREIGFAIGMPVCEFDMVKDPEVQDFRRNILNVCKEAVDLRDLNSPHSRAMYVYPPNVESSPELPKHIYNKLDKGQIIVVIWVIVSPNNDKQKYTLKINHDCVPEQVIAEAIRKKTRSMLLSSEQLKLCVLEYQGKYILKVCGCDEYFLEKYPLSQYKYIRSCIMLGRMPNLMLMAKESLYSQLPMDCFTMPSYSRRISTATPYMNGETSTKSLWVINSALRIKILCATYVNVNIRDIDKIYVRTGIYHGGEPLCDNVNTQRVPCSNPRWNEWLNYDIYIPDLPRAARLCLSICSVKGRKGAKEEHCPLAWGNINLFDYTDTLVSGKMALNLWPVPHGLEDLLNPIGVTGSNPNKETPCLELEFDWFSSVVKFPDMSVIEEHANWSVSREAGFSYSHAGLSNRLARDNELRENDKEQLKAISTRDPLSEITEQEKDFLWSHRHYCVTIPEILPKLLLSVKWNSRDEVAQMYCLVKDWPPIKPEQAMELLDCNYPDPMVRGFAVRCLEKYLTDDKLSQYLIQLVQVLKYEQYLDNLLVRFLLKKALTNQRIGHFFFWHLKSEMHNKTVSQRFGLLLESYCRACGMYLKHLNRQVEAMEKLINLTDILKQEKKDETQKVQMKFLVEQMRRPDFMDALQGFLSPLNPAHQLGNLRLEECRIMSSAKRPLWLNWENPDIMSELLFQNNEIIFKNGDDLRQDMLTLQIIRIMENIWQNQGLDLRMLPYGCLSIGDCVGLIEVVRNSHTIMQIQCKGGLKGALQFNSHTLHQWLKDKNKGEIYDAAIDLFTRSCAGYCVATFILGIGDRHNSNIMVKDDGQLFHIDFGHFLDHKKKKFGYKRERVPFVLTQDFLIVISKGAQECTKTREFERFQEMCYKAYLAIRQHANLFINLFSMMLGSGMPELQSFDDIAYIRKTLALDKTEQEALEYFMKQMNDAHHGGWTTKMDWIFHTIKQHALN
PI3Kalpha, sequence (P27986 whole entry partner, canonical isoform): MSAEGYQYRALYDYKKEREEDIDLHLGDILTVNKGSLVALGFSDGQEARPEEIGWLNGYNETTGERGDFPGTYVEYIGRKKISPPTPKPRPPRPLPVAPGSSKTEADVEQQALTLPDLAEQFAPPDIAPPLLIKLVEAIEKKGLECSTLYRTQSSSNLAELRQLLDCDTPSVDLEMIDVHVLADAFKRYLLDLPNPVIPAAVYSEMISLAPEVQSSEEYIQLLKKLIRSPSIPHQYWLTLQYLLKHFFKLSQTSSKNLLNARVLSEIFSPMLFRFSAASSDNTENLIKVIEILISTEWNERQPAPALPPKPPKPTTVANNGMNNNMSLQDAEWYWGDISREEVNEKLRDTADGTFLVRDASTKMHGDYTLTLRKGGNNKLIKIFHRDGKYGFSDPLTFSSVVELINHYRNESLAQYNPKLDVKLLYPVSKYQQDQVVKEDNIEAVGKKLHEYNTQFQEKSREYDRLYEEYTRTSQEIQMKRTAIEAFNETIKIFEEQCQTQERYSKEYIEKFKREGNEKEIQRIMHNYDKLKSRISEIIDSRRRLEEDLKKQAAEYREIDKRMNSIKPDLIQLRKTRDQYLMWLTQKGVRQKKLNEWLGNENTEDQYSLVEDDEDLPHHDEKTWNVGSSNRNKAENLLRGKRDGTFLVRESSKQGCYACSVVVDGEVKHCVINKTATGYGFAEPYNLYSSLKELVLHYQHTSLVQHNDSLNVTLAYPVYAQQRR
Protocol: as §1, §2, §3
The determination of relative selectivity for a given compound is defined as the relative ratio of the (PI3K-alphaIC50 value/PI3K-delta IC50 value).

PI3Kdelta, sequence (O00329 whole entry, canonical isoform): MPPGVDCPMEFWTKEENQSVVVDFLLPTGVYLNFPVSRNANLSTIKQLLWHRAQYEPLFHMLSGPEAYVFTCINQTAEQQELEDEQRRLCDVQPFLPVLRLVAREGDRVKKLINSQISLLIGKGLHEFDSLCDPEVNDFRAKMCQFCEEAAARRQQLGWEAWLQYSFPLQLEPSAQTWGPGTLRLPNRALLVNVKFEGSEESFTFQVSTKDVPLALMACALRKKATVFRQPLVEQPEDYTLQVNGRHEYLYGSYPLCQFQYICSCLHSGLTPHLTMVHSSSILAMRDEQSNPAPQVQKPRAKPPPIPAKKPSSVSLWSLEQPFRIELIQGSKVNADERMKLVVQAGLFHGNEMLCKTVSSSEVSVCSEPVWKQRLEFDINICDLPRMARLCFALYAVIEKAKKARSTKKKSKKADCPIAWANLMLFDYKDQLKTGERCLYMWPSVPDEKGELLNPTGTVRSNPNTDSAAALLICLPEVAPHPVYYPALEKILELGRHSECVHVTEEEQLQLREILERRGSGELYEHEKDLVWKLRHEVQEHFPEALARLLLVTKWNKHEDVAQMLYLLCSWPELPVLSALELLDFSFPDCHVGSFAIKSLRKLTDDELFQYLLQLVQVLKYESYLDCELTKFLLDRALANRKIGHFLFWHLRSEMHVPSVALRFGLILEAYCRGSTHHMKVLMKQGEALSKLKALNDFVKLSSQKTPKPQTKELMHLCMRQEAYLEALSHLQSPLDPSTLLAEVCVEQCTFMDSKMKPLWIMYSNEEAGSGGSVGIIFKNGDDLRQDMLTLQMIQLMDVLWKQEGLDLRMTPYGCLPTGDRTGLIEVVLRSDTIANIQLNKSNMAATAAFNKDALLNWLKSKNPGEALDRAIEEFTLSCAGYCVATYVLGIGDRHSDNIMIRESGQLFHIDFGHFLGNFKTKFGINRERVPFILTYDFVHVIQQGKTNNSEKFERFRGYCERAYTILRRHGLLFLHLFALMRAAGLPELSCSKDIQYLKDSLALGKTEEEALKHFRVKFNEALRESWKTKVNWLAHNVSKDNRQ
PI3Kdelta, sequence (P27986 whole entry partner, canonical isoform): as the sequence (P27986 whole entry partner, canonical isoform) above

SMILES | IC50 [1] | Relative Selectivity versus PI3Kalpha [2]
CCn1c(-c2cnc(C)nc2)nc2c(-c3ccc4c(c3)C(C)(N[C@@H](C)C3CCC3)C(=O)N4)ncnc21 (mixture of isomers) [Compound 2-27, 3-{[(1S)-1-cyclobutylethyl]amino}-5-[9-ethyl-8-(2-methylpyrimidin-5-yl)-9H-purin-6-yl]-3(R and S)-methyl-1,3-dihydro-2H-indol-2-one] | 13 nM | >10
CCn1c(-c2cnc(C)nc2)nc2c(-c3ccc4c(c3)C(C#N)(N3CC(C)(OC)C3)C(=O)N4)ncnc21 (stereo not drawn) [Compound 2-77, 5-(9-ethyl-8-(2-methylpyrimidin-5-yl)-9H-purin-6-yl)-3-(3-methoxy-3-methylazetidin-1-yl)-2-oxoindoline-3-carbonitrile] | – | >10
CCn1c(-c2cnc(C)nc2)nc2c(-c3ccc4c(c3)C(C)(N3CC(OC)C3)C(=O)N4)ncnc21 (single isomer, unassigned) [Compound 2-78, (R or S)-5-(9-ethyl-8-(2-methylpyrimidin-5-yl)-9H-purin-6-yl)-3-(3-methoxyazetidin-1-yl)-3-methylindolin-2-one] | 238 nM | >10
CCn1c(-c2cnc(C)nc2)nc2c(-c3cnc4c(c3)C(C)(CC(C)C)C(=O)N4)ncnc21 (single isomer, unassigned) [Compound 1-13, 5-(9-ethyl-8-(2-methylpyrimidin-5-yl)-9H-purin-6-yl)-3-isobutyl-3-methyl-1,3-dihydro-2H-pyrrolo[2,3-b]pyridin-2-one] | 370 nM | >10
CCn1c(-c2cnc(C)nc2)nc2c(-c3ccc4c(c3)C(C)(CC(C)(C)O)C(=O)N4)ncnc21 (single isomer, unassigned) [Compound 1-40, 5-(9-Ethyl-8-(2-methylpyrimidin-5-yl)-9H-purin-6-yl)-3-(2-hydroxy-2-methylpropyl)-3-methylindolin-2-one] | 142 nM | >10
CCn1c(-c2cnc(C)nc2)nc2c(-c3ccc4c(c3)C3(CCN(C(C)C)C3)C(=O)N4)ncnc21 (single isomer, unassigned) [Compound 3-36, (R or S)-5-(9-ethyl-8-(2-methylpyrimidin-5-yl)-9H-purin-6-yl)-1′-isopropylspiro[indoline-3,3′-pyrrolidin]-2-one] | 26 nM | >10
CCn1c(-c2cnc(C)nc2)nc2c(-c3ccc4c(c3)C(C)(Cc3ccccc3)CN4)ncnc21 (stereo not drawn) [Compound 1-18, 6-(3-Benzyl-3-methylindolin-5-yl)-9-ethyl-8-(2-methylpyrimidin-5-yl)-9H-purine] | – | >10
CCn1c(-c2cnc(C)nc2)nc2c(-c3ccc4oc(=O)n(CC5CCOCC5)c4c3)ncnc21 [Compound 5-4, 5-[9-ethyl-8-(2-methylpyrimidin-5-yl)-9H-purin-6-yl]-3-(tetrahydro-2H-pyran-4-ylmethyl)-1,3-benzoxazol-2(3H)-one] | – | >10
CCn1c(-c2cnc(C)nc2)nc2c(-c3ccc4c(c3)C(C)(c3ccccc3)OC(=O)N4)ncnc21 (stereo not drawn) [Compound 4-16, 6-(9-ethyl-8-(2-methylpyrimidin-5-yl)-9H-purin-6-yl)-4-methyl-4-phenyl-1,4-dihydro-2H-benzo[d][1,3]oxazin-2-one] | – | >10
CCn1c(-c2cnc(C)nc2)nc2c(-c3ccc4c(c3)CN(C)S4(=O)=O)ncnc21 [Compound 4-14, 5-(9-ethyl-8-(2-methylpyrimidin-5-yl)-9H-purin-6-yl)-2-methyl-2,3-dihydrobenzo[d]isothiazole 1,1-dioxide] | – | >10
CCn1c(-c2cnc(C)nc2)nc2c(-c3ccc4c(c3)CNS4(=O)=O)ncnc21 [Compound 4-13, 5-(9-ethyl-8-(2-methylpyrimidin-5-yl)-9H-purin-6-yl)-2,3-dihydrobenzo[d]isothiazole 1,1-dioxide] | – | 9
CCn1c(-c2cnc(C)nc2)nc2c(-c3ccc4c(c3)CNC4=O)ncnc21 [Compound 4-15, 5-(9-ethyl-8-(2-methylpyrimidin-5-yl)-9H-purin-6-yl)isoindolin-1-one] | – | 7
CCn1c(-c2cnc(C)nc2)nc2c(-c3ccc4c(c3)C(C)(OC3CCC3)C(=O)N4)ncnc21 (racemic) [Compound 2-74, 3-cyclobutoxy-5-(9-ethyl-8-(2-methylpyrimidin-5-yl)-9H-purin-6-yl)-3-methylindolin-2-one] | – | >10
CCn1c(-c2cnc(C)nc2)nc2c(-c3ccc4c(c3)C(C)(Cc3ccccc3)CN4C)ncnc21 (stereo not drawn) [Compound 1-22, 6-(3-Benzyl-1,3-dimethylindolin-5-yl)-9-ethyl-8-(2-methylpyrimidin-5-yl)-9H-purine] | – | >10
CCn1c(-c2cnc(C)nc2)nc2c(-c3ccc4c(c3)C(C#N)(CC(C)C)C(=O)N4)ncnc21 (stereo not drawn) [Compound 1-11, 5-(9-Ethyl-8-(2-methylpyrimidin-5-yl)-9H-purin-6-yl)-3-isobutyl-2-oxoindoline-3-carbonitrile] | – | >10
CCn1c(-c2cnc(C)nc2)nc2c(-c3ccc4oc(=O)n(Cc5ccccc5)c4c3)ncnc21 [Compound 5-3, 3-benzyl-5-[9-ethyl-8-(2-methylpyrimidin-5-yl)-9H-purin-6-yl]-1,3-benzoxazol-2(3H)-one] | – | >10
Cc1ncc(-c2nc3c(-c4ccc5c(c4)C4(CCN(C(=O)C6CC6)CC4)C(=O)N5)ncnc3n2C)cn1 [Compound 3-25, 1′-(cyclopropanecarbonyl)-5-(9-methyl-8-(2-methylpyrimidin-5-yl)-9H-purin-6-yl)spiro[indoline-3,4′-piperidin]-2-one] | – | >10
CCn1c(-c2cnc(C)nc2)nc2c(-c3ccc4c(c3)C(C)(OC(C)C)C(=O)N4)ncnc21 (racemic) [Compound 2-73, 5-(9-ethyl-8-(2-methylpyrimidin-5-yl)-9H-purin-6-yl)-3-isopropoxy-3-methylindolin-2-one] | – | >10
CCn1c(-c2cnc(C)nc2)nc2c(-c3ccc4c(c3)C(C)(Cc3cncnc3)C(=O)N4)ncnc21 (racemic) [Compound 1-33, 5-(9-ethyl-8-(2-methylpyrimidin-5-yl)-9H-purin-6-yl)-3-methyl-3-(pyrimidin-5-ylmethyl)indolin-2-one] | – | >10
CCn1c(-c2cnc(C)nc2)nc2c(-c3ccc4c(c3)C(C)(Cc3ccccc3)CN4C(C)=O)ncnc21 (stereo not drawn) [Compound 1-19, 1-(3-Benzyl-5-(9-ethyl-8-(2-methylpyrimidin-5-yl)-9H-purin-6-yl)-3-methylindolin-1-yl)ethan-1-one] | – | >10
CCn1c(-c2cnc(C)nc2)nc2c(-c3ccc4c(c3)C3(CCCC3)C(=O)N4)ncnc21 [Compound 3-34, 5′-(9-ethyl-8-(2-methylpyrimidin-5-yl)-9H-purin-6-yl)spiro[cyclopentane-1,3′-indolin]-2′-one] | – | >10
Cc1ncc(-c2nc3c(-c4ccc5c(c4)C(C)(OCC4CC4)C(=O)N5)ncnc3n2C)cn1 (racemic) [Compound 2-75, 3-(cyclopropylmethoxy)-3-methyl-5-(9-methyl-8-(2-methylpyrimidin-5-yl)-9H-purin-6-yl)indolin-2-one] | – | >10
